# Activity calls are given as the source filed them. No cut-off for these calls is given here.
# Key:
# [1] = system: Triticum aestivum; experiment: Toxicity against Winter Triticum aestivum (wheat) cultivar Dongmai 12 assessed as grain yield at 525 g ai/h; format: organism-based; settings: in vivo
# [2] = system: Triticum aestivum; experiment: Toxicity against Winter Triticum aestivum (wheat) cultivar Dongmai 12 assessed as 1000-grain weight at 450 g ai/h applied at booting stage of crop (reference value: 42.6 g); format: organism-based; settings: in vivo, other
# [3] = system: Triticum aestivum; experiment: Toxicity against Winter Triticum aestivum (wheat) cultivar Dongmai 12 assessed as 1000-grain weight at 900 g ai/h applied at 3-leaf stage of crop (reference value: 42.6 g); format: organism-based; settings: in vivo, other
# [4] = system: Triticum aestivum; experiment: Toxicity against Winter Triticum aestivum (wheat) cultivar Dongmai 12 assessed as 1000-grain weight at 900 g ai/h applied at late tillering stage of crop in spring (reference value: 42.6 g); format: organism-based; settings: in vivo, other
# [5] = system: Triticum aestivum; experiment: Toxicity against Winter Triticum aestivum (wheat) cultivar Dongmai 12 assessed as 1000-grain weight at 225 g ai/h applied at 3-leaf stage of crop (reference value: 42.6 gms); format: organism-based; settings: in vivo, other
# [6] = system: Amaranthus retroflexus; experiment: Herbicidal activity against Amaranthus retroflexus assessed as decrease in biomass treated at 4-5 leaf stage measured after 14 days under greenhouse trials; format: functional
# [7] = system: Triticum aestivum; experiment: Toxicity against Winter Triticum aestivum (wheat) cultivar Dongmai 12 assessed as plant height at 225 g ai/h applied at 2-tillering stage of crop in winter (reference value: 72.7 cm); format: organism-based; settings: in vivo, other
# [8] = system: Triticum aestivum; experiment: Toxicity against Winter Triticum aestivum (wheat) cultivar Dongmai 12 assessed as plant height at 450 g ai/h applied at 2-tillering stage of crop in winter (reference value: 72.7 cm); format: organism-based; settings: in vivo, other
# [9] = system: Triticum aestivum; experiment: Toxicity against Winter Triticum aestivum (wheat) cultivar Dongmai 12 assessed as spike numbers at 900 g ai/h applied at late tillering stage of crop in spring (reference value: 482.4/m'2); format: organism-based; settings: in vivo, other
# [10] = system: Triticum aestivum; experiment: Toxicity against Winter Triticum aestivum (wheat) cultivar Dongmai 12 assessed as plant height at 450 g ai/h applied at late tillering stage of crop in spring (reference value: 72.7 cm); format: organism-based; settings: in vivo, other
# [11] = system: Triticum aestivum; experiment: Toxicity against Winter Triticum aestivum (wheat) cultivar Dongmai 12 assessed as 1000-grain weight at 225 g ai/h applied at late tillering stage of crop in spring (reference value: 42.6 g); format: organism-based; settings: in vivo, other
# [12] = system: Triticum aestivum; experiment: Toxicity against Winter Triticum aestivum (wheat) cultivar Dongmai 12 assessed as abnormal ear formation at 525 g ai/h; format: organism-based; settings: in vivo
# [13] = system: Triticum aestivum; experiment: Toxicity against Winter Triticum aestivum (wheat) cultivar Dongmai 12 assessed as plant height at 900 g ai/h applied at 3-leaf stage of crop (reference value: 72.7 cm); format: organism-based; settings: in vivo, other
# [14] = system: Triticum aestivum; experiment: Toxicity against Winter Triticum aestivum (wheat) cultivar Dongmai 12 assessed as spike numbers at 450 g ai/h applied at late tillering stage of crop in spring (reference value: 482.4/m'2); format: organism-based; settings: in vivo, other
# [15] = system: Triticum aestivum; experiment: Toxicity against Winter Triticum aestivum (wheat) cultivar Dongmai 12 assessed as spike numbers at 225 g ai/h applied at booting stage of crop (reference value: 482.4/m'2); format: organism-based; settings: in vivo, other
# [16] = system: Capsella bursa-pastoris; experiment: Herbicidal activity against Capsella bursa-pastoris in wheat cultivar lifeng 703 field assessed as decrease in biomass applied during late tillering stage of winter wheatat 525 g ai/h measured after 45 days under field trials; format: functional, organism-based
# [17] = system: Triticum aestivum; experiment: Toxicity against Winter Triticum aestivum (wheat) cultivar Dongmai 12 assessed as spike numbers at 450 g ai/h applied at 2-tillering stage of crop in winter (reference value: 482.4/m'2); format: organism-based; settings: in vivo, other
# [18] = system: Triticum aestivum; experiment: Toxicity against Winter Triticum aestivum (wheat) cultivar Dongmai 12 assessed as 1000-grain weight at 450 g ai/h applied at late tillering stage of crop in spring (reference value: 42.6 g); format: organism-based; settings: in vivo, other
# [19] = system: Triticum aestivum; experiment: Toxicity against Winter Triticum aestivum (wheat) cultivar Dongmai 12 assessed as spike numbers at 225 g ai/h applied at 2-tillering stage of crop in winter (reference value: 482.4/m'2); format: organism-based; settings: in vivo, other
# [20] = system: Triticum aestivum; experiment: Toxicity against Winter Triticum aestivum (wheat) cultivar Dongmai 12 assessed as spike numbers at 900 g ai/h applied at booting stage of crop (reference value: 482.4/m'2); format: organism-based; settings: in vivo, other
# [21] = system: Triticum aestivum; experiment: Toxicity against Winter Triticum aestivum (wheat) cultivar lifeng 703 assessed as abnormal ear formation at 525 g ai/h; format: organism-based; settings: in vivo
# [22] = system: Triticum aestivum; experiment: Toxicity against Winter Triticum aestivum (wheat) cultivar lifeng 703 assessed as grain yield at 525 g ai/h; format: organism-based; settings: in vivo
# [23] = system: Triticum aestivum; experiment: Toxicity against Winter Triticum aestivum (wheat) cultivar Dongmai 12 assessed as plant height at 900 g ai/h applied at late tillering stage of crop in spring (reference value: 72.7 cm); format: organism-based; settings: in vivo, other
# [24] = system: Capsella bursa-pastoris; experiment: Herbicidal activity against Capsella bursa-pastoris assessed as decrease in biomass treated at 4-5 leaf stage measured after 14 days under greenhouse trials; format: functional
# [25] = system: Triticum aestivum; experiment: Toxicity against Winter Triticum aestivum (wheat) cultivar Dongmai 12 assessed as 1000-grain weight at 225 g ai/h applied at 2-tillering stage of crop in winter (reference value: 42.6 g); format: organism-based; settings: in vivo, other
# [26] = system: Triticum aestivum; experiment: Toxicity against Winter Triticum aestivum (wheat) cultivar Dongmai 12 assessed as 1000-grain weight at 450 g ai/h applied at 3-leaf stage of crop (reference value: 42.6 gms); format: organism-based; settings: in vivo, other
# [27] = system: Triticum aestivum; experiment: Toxicity against Winter Triticum aestivum (wheat) cultivar Dongmai 12 assessed as 1000-grain weight at 450 g ai/h applied at 2-tillering stage of crop in winter (reference value: 42.6 g); format: organism-based; settings: in vivo, other
# [28] = system: Capsella bursa-pastoris; experiment: Herbicidal activity against Capsella bursa-pastoris in wheat cultivar Dongmai 12 field assessed as decrease in plant number applied during late tillering stage of winter wheatat 525 g ai/h measured after 45 days under field trials; format: functional, organism-based
# [29] = system: Myosoton aquaticum; experiment: Herbicidal activity against Myosoton aquaticum assessed as decrease in biomass treated at four to five-leaf stage measured after 14 days under greenhouse trials; format: functional
# [30] = system: Triticum aestivum; experiment: Toxicity against Winter Triticum aestivum (wheat) cultivar Dongmai 12 assessed as spike numbers at 225 g ai/h applied at 3-leaf stage of crop (reference value: 482.4/m'2); format: organism-based; settings: in vivo, other
# [31] = system: Triticum aestivum; experiment: Toxicity against Winter Triticum aestivum (wheat) cultivar Dongmai 12 assessed as spike numbers at 225 g ai/h applied at late tillering stage of crop in spring (reference value: 482.4/m'2); format: organism-based; settings: in vivo, other
# [32] = system: Triticum aestivum; experiment: Toxicity against Winter Triticum aestivum (wheat) cultivar Dongmai 12 assessed as spike numbers at 450 g ai/h applied at booting stage of crop (reference value: 482.4/m'2); format: organism-based; settings: in vivo, other
# [33] = system: Triticum aestivum; experiment: Toxicity against Winter Triticum aestivum (wheat) cultivar Dongmai 12 assessed as plant height at 900 g ai/h applied at booting stage of crop (reference value: 72.7 cm); format: organism-based; settings: in vivo, other
# [34] = system: Triticum aestivum; experiment: Toxicity against Winter Triticum aestivum (wheat) cultivar Dongmai 12 assessed as 1000-grain weight at 225 g ai/h applied at booting stage of crop (reference value: 42.6 g); format: organism-based; settings: in vivo, other
# [35] = system: Descurainia sophia; experiment: Herbicidal activity against Descurainia sophia in Wheat cultivar lifeng 703 field assessed as decrease in plant number applied during late tillering stage of winter wheat at 525 g ai/h measured after 45 days under field trials; format: functional, organism-based
# [36] = system: Capsella bursa-pastoris; experiment: Herbicidal activity against Capsella bursa-pastoris in wheat cultivar lifeng 703 field assessed as decrease in plant number applied during late tillering stage of winter wheatat 525 g ai/h measured after 45 days under field trials; format: functional, organism-based
# [37] = system: Triticum aestivum; experiment: Toxicity against Winter Triticum aestivum (wheat) cultivar Dongmai 12 assessed as spike numbers at 450 g ai/h applied at 3-leaf stage of crop (reference value: 482.4/m'2); format: organism-based; settings: in vivo, other
# [38] = system: Capsella bursa-pastoris; experiment: Herbicidal activity against Capsella bursa-pastoris in wheat cultivar Dongmai 12 field assessed as decrease in biomass applied during late tillering stage of winter wheatat 525 g ai/h measured after 45 days under field trials; format: functional, organism-based
# [39] = system: Descurainia sophia; experiment: Herbicidal activity against Descurainia sophia assessed as decrease in biomass treated at 4-5 leaf stage measured after 14 days under greenhouse trials; format: functional
# [40] = system: Triticum aestivum; experiment: Toxicity against Winter Triticum aestivum (wheat) cultivar Dongmai 12 assessed as plant height at 225 g ai/h applied at late tillering stage of crop in spring (reference value: 72.7 cm); format: organism-based; settings: in vivo, other
# [41] = system: Triticum aestivum; experiment: Toxicity against Winter Triticum aestivum (wheat) cultivar Dongmai 12 assessed as spike numbers at 900 g ai/h applied at 3-leaf stage of crop (reference value: 482.4/m'2); format: organism-based; settings: in vivo, other
# [42] = system: Triticum aestivum; experiment: Toxicity against Winter Triticum aestivum (wheat) cultivar Dongmai 12 assessed as plant height at 450 g ai/h applied at booting stage of crop (reference value: 72.7 cm); format: organism-based; settings: in vivo, other
# [43] = system: Descurainia sophia; experiment: Herbicidal activity against Descurainia sophia in Wheat cultivar Dongmai 12 field assessed as decrease in biomass applied during late tillering stage of winter wheat at 525 g ai/h measured after 45 days under field trials; format: functional, organism-based
# [44] = system: Triticum aestivum; experiment: Toxicity against Winter Triticum aestivum (wheat) cultivar Dongmai 12 assessed as plant height at 900 g ai/h applied at 2-tillering stage of crop in winter (reference value: 72.7 cm); format: organism-based; settings: in vivo, other
# [45] = system: Triticum aestivum; experiment: Toxicity against Winter Triticum aestivum (wheat) cultivar Dongmai 12 assessed as plant height at 450 g ai/h applied at 3-leaf stage of crop (reference value: 72.7 cm); format: organism-based; settings: in vivo, other
# [46] = system: Descurainia sophia; experiment: Herbicidal activity against Descurainia sophia in Wheat cultivar Dongmai 12 field assessed as decrease in plant number applied during late tillering stage of winter wheat at 525 g ai/h measured after 45 days under field trials; format: functional, organism-based
# [47] = system: Descurainia sophia; experiment: Herbicidal activity against Descurainia sophia in Wheat cultivar lifeng 703 field assessed as decrease in biomass applied during late tillering stage of winter wheat at 525 g ai/h measured after 45 days under field trials; format: functional, organism-based
# [48] = system: Triticum aestivum; experiment: Toxicity against Winter Triticum aestivum (wheat) cultivar Dongmai 12 assessed as 1000-grain weight at 900 g ai/h applied at 2-tillering stage of crop in winter (reference value: 42.6 g); format: organism-based; settings: in vivo, other
# [49] = system: Triticum aestivum; experiment: Toxicity against Winter Triticum aestivum (wheat) cultivar Dongmai 12 assessed as plant height at 225 g ai/h applied at 3-leaf stage of crop (reference value: 72.7 cm); format: organism-based; settings: in vivo, other
# [50] = system: Triticum aestivum; experiment: Toxicity against Winter Triticum aestivum (wheat) cultivar Dongmai 12 assessed as spike numbers at 900 g ai/h applied at 2-tillering stage of crop in winter (reference value: 482.4/m'2); format: organism-based; settings: in vivo, other
# [51] = system: Triticum aestivum; experiment: Toxicity against Winter Triticum aestivum (wheat) cultivar Dongmai 12 assessed as 1000-grain weight at 900 g ai/h applied at booting stage of crop (reference value: 42.6 g); format: organism-based; settings: in vivo, other
# [52] = system: Triticum aestivum; experiment: Toxicity against Winter Triticum aestivum (wheat) cultivar Dongmai 12 assessed as plant height at 225 g ai/h applied at booting stage of crop (reference value: 72.7 cm); format: organism-based; settings: in vivo, other
smiles,measurement,setting,value
"O=C(O)COc1ccc(Cl)cc1Cl [2,4-DICHLOROPHENOXYACETIC ACID]",Activity,[1],5.6 tons/ha
same,Activity,[2],42.5 g
same,Activity,[3],37.5 g
same,Activity,[4],42.2 g
same,Activity,[5],40.9 g
same,ED50,[6],74.1 gAi/ha
same,Activity,[7],72 cm
same,Activity,[8],71.9 cm
same,Activity,[9],480 /m2
same,Activity,[10],72 cm
same,Activity,[11],42.4 g
same,Activity,[12],Non-toxic
same,Activity,[13],61.6 cm
same,Activity,[14],480 /m2
same,Activity,[15],484.5 /m2
same,inhibition,[16],Active
same,Activity,[17],453 /m2
same,Activity,[18],42.2 g
same,Activity,[19],478.5 /m2
same,Activity,[20],474 /m2
same,Activity,[21],Toxic
same,Activity,[22],8.2 tons/ha
same,Activity,[23],72.3 cm
same,ED50,[24],75.4 gAi/ha
same,Activity,[25],42.6 g
same,Activity,[26],38.8 g
same,Activity,[27],42.6 g
same,inhibition,[28],Active
same,ED50,[29],60.2 gAi/ha
same,Activity,[30],406.5 /m2
same,Activity,[31],484.5 /m2
same,Activity,[32],474 /m2
same,Activity,[33],70.5 cm
same,Activity,[34],42.5 g
same,inhibition,[35],Active
same,inhibition,[36],Active
same,Activity,[37],366 /m2
same,inhibition,[38],Active
same,ED50,[39],23.9 gAi/ha
same,Activity,[40],73.2 cm
same,Activity,[41],361.5 /m2
same,Activity,[42],71.5 cm
same,inhibition,[43],Active
same,Activity,[44],71.5 cm
same,Activity,[45],66 cm
same,inhibition,[46],Active
same,inhibition,[47],Active
same,Activity,[48],42.2 g
same,Activity,[49],70.3 cm
same,Activity,[50],450 /m2
same,Activity,[51],41.7 g
same,Activity,[52],72 cm
